Data taken from ChEMBL document CHEMBL1132005, “Structure-activity relationship in two series of aminoalkyl substituted coumarin inhibitors of gyrase B” (1999).
≈ marks a conversion by molar mass, not a printed value.

Legend:
[1] = system: Staphylococcus epidermidis; assay: In vitro antibacterial activity against Staphylococcus epidermidis 012GO39 OxaTei-R; type: functional
[2] = molecular target: DNA gyrase (Escherichia coli) (UniProt P0AES6+P0AES4); assay: In vitro inhibition of supercoiling activity of Escherichia coli DNA gyrase as the ratio of IC50 of Novobiocin and IC50 of compound; type: protein-complex assay
Enterococcus faecium = assay: In vitro antibacterial activity against Enterococcus faecium 02D31P2 VanTeiEry-R; type: functional
Staphylococcus aureus [3] = assay: In vitro antibacterial activity against Staphylococcus aureus 011GO76 OfloOxaEry-R; type: functional
Staphylococcus aureus [4] = assay: In vitro antibacterial activity against Staphylococcus aureus 011HT3; type: functional
Streptococcus pyogenes = assay: In vitro antibacterial activity against Streptococcus pyogenes O2A1UC1
Staphylococcus aureus [5] = assay: In vitro antibacterial activity against Staphylococcus aureus 011HT1 Nov-R; type: functional

SMILES	MIC [1] [µg/mL]	Ratio [2]	MIC (Enterococcus faecium) [µg/mL]	MIC (Staphylococcus aureus [3]) [µg/mL]	MIC (Staphylococcus aureus [4]) [µg/mL]	MIC (Streptococcus pyogenes) [µg/mL]	MIC (Staphylococcus aureus [5]) [µg/mL]
CO[C@@H]1[C@@H](OC(=O)c2ccc(C)[nH]2)[C@@H](O)[C@H](Oc2ccc3c(CSc4nc[nH]n4)cc(=O)oc3c2C)OC1(C)C	0.3 (≈ 0.526 µM)	0.4	2.5 (≈ 4.38 µM)	0.6 (≈ 1.05 µM)	0.3 (≈ 0.526 µM)	0.6 (≈ 1.05 µM)	10 (≈ 17.5 µM)
CO[C@@H]1[C@@H](OC(=O)c2ccc(C)[nH]2)[C@@H](O)[C@H](Oc2ccc3c(Cn4cncn4)cc(=O)oc3c2C)OC1(C)C	0.6 (≈ 1.11 µM)	0.4	40 (≈ 74.3 µM)	2.5 (≈ 4.64 µM)	1.2 (≈ 2.23 µM)	2.5 (≈ 4.64 µM)	40 (≈ 74.3 µM)
CO[C@@H]1[C@@H](OC(=O)c2ccc(C)[nH]2)[C@@H](O)[C@H](Oc2ccc3c(CN4CCNC(c5ccco5)C4)cc(=O)oc3c2C)OC1(C)C (stereo not given in full)	0.6 (≈ 0.965 µM)	0.33	10 (≈ 16.1 µM)	10 (≈ 16.1 µM)	0.6 (≈ 0.965 µM)	1.2 (≈ 1.93 µM)	10 (≈ 16.1 µM)
CO[C@@H]1[C@@H](OC(=O)c2ccc(C)[nH]2)[C@@H](O)[C@H](Oc2ccc3c(OCCN(C)C)cc(=O)oc3c2C)OC1(C)C	2.5 (≈ 4.59 µM)	0.57	> 40	5 (≈ 9.18 µM)	2.5 (≈ 4.59 µM)	10 (≈ 18.4 µM)	40 (≈ 73.4 µM)
CO[C@@H]1[C@@H](OC(=O)c2ccc(C)[nH]2)[C@@H](O)[C@H](Oc2ccc3c(CN4CCNCC4c4ccccc4)cc(=O)oc3c2C)OC1(C)C (stereo not given in full)	0.6 (≈ 0.95 µM)	0.17	5 (≈ 7.91 µM)	5 (≈ 7.91 µM)	1.2 (≈ 1.9 µM)	1.2 (≈ 1.9 µM)	5 (≈ 7.91 µM)
CO[C@@H]1[C@@H](OC(=O)c2ccc(C)[nH]2)[C@@H](O)[C@H](Oc2ccc3c(OCCN4CCNC(c5ccccc5)C4)cc(=O)oc3c2C)OC1(C)C (stereo not given in full)	0.6 (≈ 0.907 µM)	0.33	5 (≈ 7.56 µM)	10 (≈ 15.1 µM)	0.3 (≈ 0.453 µM)	1.2 (≈ 1.81 µM)	5 (≈ 7.56 µM)
CO[C@@H]1[C@@H](OC(=O)c2ccc(C)[nH]2)[C@@H](O)[C@H](Oc2ccc3c(CN4CCC(O)CC4)cc(=O)oc3c2C)OC1(C)C	0.6 (≈ 1.05 µM)	0.22	20 (≈ 35 µM)	1.2 (≈ 2.1 µM)	0.6 (≈ 1.05 µM)	2.5 (≈ 4.38 µM)	20 (≈ 35 µM)
CO[C@@H]1[C@@H](OC(=O)c2ccc(C)[nH]2)[C@@H](O)[C@H](Oc2ccc3c(OCCN4CCN(C)CC4)cc(=O)oc3c2C)OC1(C)C	1.2 (≈ 2 µM)	0.5	40 (≈ 66.7 µM)	2.5 (≈ 4.17 µM)	1.2 (≈ 2 µM)	10 (≈ 16.7 µM)	20 (≈ 33.4 µM)
CO[C@@H]1[C@@H](OC(=O)c2ccc(C)[nH]2)[C@@H](O)[C@H](Oc2ccc3c(OCCN4CCOCC4)c(Cl)c(=O)oc3c2C)OC1(C)C	2.5 (≈ 4.03 µM)	0.17	> 40	2.5 (≈ 4.03 µM)	1.2 (≈ 1.93 µM)	5 (≈ 8.05 µM)	> 40
CO[C@@H]1[C@@H](OC(=O)c2ccc(C)[nH]2)[C@@H](O)[C@H](Oc2ccc3c(OCCN)cc(=O)oc3c2C)OC1(C)C	1.2 (≈ 2.32 µM)	0.81	20 (≈ 38.7 µM)	5 (≈ 9.68 µM)	2.5 (≈ 4.84 µM)	5 (≈ 9.68 µM)	20 (≈ 38.7 µM)
CO[C@@H]1[C@@H](OC(=O)c2ccc(C)[nH]2)[C@@H](O)[C@H](Oc2ccc3c(CN4CCC[C@H]4CO)cc(=O)oc3c2C)OC1(C)C	1.2 (≈ 2.1 µM)	0.3	20 (≈ 35 µM)	1.2 (≈ 2.1 µM)	0.6 (≈ 1.05 µM)	2.5 (≈ 4.38 µM)	10 (≈ 17.5 µM)
CO[C@@H]1[C@@H](OC(=O)c2ccc(C)[nH]2)[C@@H](O)[C@H](Oc2ccc3c(CN4CCN(C)CC4)cc(=O)oc3c2C)OC1(C)C	2.5 (≈ 4.39 µM)	0.46	> 40	5 (≈ 8.78 µM)	5 (≈ 8.78 µM)	10 (≈ 17.6 µM)	40 (≈ 70.2 µM)
CO[C@@H]1[C@@H](OC(=O)c2ccc(C)[nH]2)[C@@H](O)[C@H](Oc2ccc3c(CSc4ncc[nH]4)cc(=O)oc3c2C)OC1(C)C	0.6 (≈ 1.05 µM)	0.35	20 (≈ 35.1 µM)	10 (≈ 17.6 µM)	0.6 (≈ 1.05 µM)	2.5 (≈ 4.39 µM)	20 (≈ 35.1 µM)
CO[C@@H]1[C@@H](OC(=O)c2ccc(C)[nH]2)[C@@H](O)[C@H](Oc2ccc3c(OCCn4cncn4)cc(=O)oc3c2C)OC1(C)C	< 0.04	0.57	10 (≈ 17.6 µM)	10 (≈ 17.6 µM)	0.3 (≈ 0.528 µM)	1.2 (≈ 2.11 µM)	20 (≈ 35.2 µM)
CO[C@@H]1[C@@H](OC(=O)c2ccc(C)[nH]2)[C@@H](O)[C@H](Oc2ccc3c(CN4CCCC4)cc(=O)oc3c2C)OC1(C)C	2.5 (≈ 4.62 µM)	0.5	> 40	5 (≈ 9.25 µM)	2.5 (≈ 4.62 µM)	10 (≈ 18.5 µM)	40 (≈ 74 µM)
